# PubChem BioAssay AID2060901 (Molecular Pharmacology Branch, DTP, NCI, 2025)
# System: 422866-222-R5-J1-PDC complex spheroids viability
# Assay: Anticancer human tumor 422866-222-R5-J1-PDC patient-derived pancreatic adenocarcinoma cell line growth inhibition [RAS]
# Conditions: for IC50: curve of first compound; for viability, T/C: stronger effect = lower value
# Outline: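 Tumour cells grown as complex spheroids with HUVEC endothelial cells and mesenchymal stem cells, treated with RAS pathway inhibitor combinations. Each agent spans half-log steps from near clinical Cmax, or 10 microM where Cmax is unknown.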
# 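Further: spheroids exposed to compounds for 7 days.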
# 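Wherever viability, T/C is given: 100% = DMSO vehicle control viability.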
compound,measurement,setting,value
C=CC(=O)N1CCN(c2nc(OCC3CCCN3C)nc3c(F)c(-c4nc(N)cc(C)c4C(F)(F)F)c(Cl)cc23)C(C)C1 (centres undefined) + C#Cc1c(F)ccc2cc(O)cc(-c3ncc4c(N5CC6CCC(C5)N6)nc(OCC56CCCN5CC(F)C6)nc4c3F)c12,IC50,second compound 0.0316 µM,< 3.16 nM
same,IC50,second compound 0.1 µM,< 3.16 nM
same,IC50,second compound 0.316 µM,< 3.16 nM
same,IC50,second compound 1 µM,< 3.16 nM
same,IC50,second compound 3.16 µM,< 3.16 nM
same,IC50,second compound 10 µM,< 3.16 nM
same,"viability, T/C","second compound 0.0316 µM, first compound 0.00316 µM",29.7%
same,"viability, T/C","second compound 0.0316 µM, first compound 0.01 µM",24%
same,"viability, T/C","second compound 0.0316 µM, first compound 0.0316 µM",21.9%
same,"viability, T/C","second compound 0.0316 µM, first compound 0.1 µM",19.4%
same,"viability, T/C","second compound 0.0316 µM, first compound 0.316 µM",19%
same,"viability, T/C","second compound 0.0316 µM, first compound 1 µM",22%
same,"viability, T/C","second compound 0.1 µM, first compound 0.00316 µM",28.4%
same,"viability, T/C","second compound 0.1 µM, first compound 0.01 µM",24.6%
same,"viability, T/C","second compound 0.1 µM, first compound 0.0316 µM",21.2%
same,"viability, T/C","second compound 0.1 µM, first compound 0.1 µM",18.6%
same,"viability, T/C","second compound 0.1 µM, first compound 0.316 µM",20.9%
same,"viability, T/C","second compound 0.1 µM, first compound 1 µM",21.3%
same,"viability, T/C","second compound 0.316 µM, first compound 0.00316 µM",29.6%
same,"viability, T/C","second compound 0.316 µM, first compound 0.01 µM",24.6%
same,"viability, T/C","second compound 0.316 µM, first compound 0.0316 µM",25.7%
same,"viability, T/C","second compound 0.316 µM, first compound 0.1 µM",19.2%
same,"viability, T/C","second compound 0.316 µM, first compound 0.316 µM",21%
same,"viability, T/C","second compound 0.316 µM, first compound 1 µM",21%
same,"viability, T/C","second compound 1 µM, first compound 0.00316 µM",20.5%
same,"viability, T/C","second compound 1 µM, first compound 0.01 µM",21.4%
same,"viability, T/C","second compound 1 µM, first compound 0.0316 µM",21.7%
same,"viability, T/C","second compound 1 µM, first compound 0.1 µM",19.8%
same,"viability, T/C","second compound 1 µM, first compound 0.316 µM",18.8%
same,"viability, T/C","second compound 1 µM, first compound 1 µM",17.5%
same,"viability, T/C","second compound 3.16 µM, first compound 0.00316 µM",21.6%
same,"viability, T/C","second compound 3.16 µM, first compound 0.01 µM",18.1%
same,"viability, T/C","second compound 3.16 µM, first compound 0.0316 µM",21%
same,"viability, T/C","second compound 3.16 µM, first compound 0.1 µM",22.5%
same,"viability, T/C","second compound 3.16 µM, first compound 0.316 µM",19%
same,"viability, T/C","second compound 3.16 µM, first compound 1 µM",22.6%
same,"viability, T/C","second compound 10 µM, first compound 0.00316 µM",17.9%
same,"viability, T/C","second compound 10 µM, first compound 0.01 µM",20.3%
same,"viability, T/C","second compound 10 µM, first compound 0.0316 µM",20.8%
same,"viability, T/C","second compound 10 µM, first compound 0.1 µM",17.5%
same,"viability, T/C","second compound 10 µM, first compound 0.316 µM",20.7%
same,"viability, T/C","second compound 10 µM, first compound 1 µM",17.6%
CC1(C)CCC(Nc2ncc(C(F)(F)F)c(-c3c[nH]c4c(P(C)(C)=O)c(C#N)ccc34)n2)CN1 (centres undefined) + C#Cc1c(F)ccc2cc(O)cc(-c3ncc4c(N5CC6CCC(C5)N6)nc(OCC56CCCN5CC(F)C6)nc4c3F)c12,IC50,second compound 0.0316 µM,> 300 nM
same,IC50,second compound 0.1 µM,91.8 nM
same,IC50,second compound 0.316 µM,7.9 nM
same,IC50,second compound 1 µM,1.6 nM
same,IC50,second compound 3.16 µM,< 0.949 nM
same,IC50,second compound 10 µM,< 0.949 nM
same,"viability, T/C","second compound 0.0316 µM, first compound 0.000949 µM",112%
same,"viability, T/C","second compound 0.0316 µM, first compound 0.003 µM",83.3%
same,"viability, T/C","second compound 0.0316 µM, first compound 0.00949 µM",80.6%
same,"viability, T/C","second compound 0.0316 µM, first compound 0.03 µM",55.6%
same,"viability, T/C","second compound 0.0316 µM, first compound 0.0949 µM",62%
same,"viability, T/C","second compound 0.0316 µM, first compound 0.3 µM",56.4%
same,"viability, T/C","second compound 0.1 µM, first compound 0.000949 µM",100%
same,"viability, T/C","second compound 0.1 µM, first compound 0.003 µM",68%
same,"viability, T/C","second compound 0.1 µM, first compound 0.00949 µM",73.8%
same,"viability, T/C","second compound 0.1 µM, first compound 0.03 µM",38.2%
same,"viability, T/C","second compound 0.1 µM, first compound 0.0949 µM",47.5%
same,"viability, T/C","second compound 0.1 µM, first compound 0.3 µM",55.6%
same,"viability, T/C","second compound 0.316 µM, first compound 0.000949 µM",64.2%
same,"viability, T/C","second compound 0.316 µM, first compound 0.003 µM",66.4%
same,"viability, T/C","second compound 0.316 µM, first compound 0.00949 µM",45.5%
same,"viability, T/C","second compound 0.316 µM, first compound 0.03 µM",45.1%
same,"viability, T/C","second compound 0.316 µM, first compound 0.0949 µM",52.6%
same,"viability, T/C","second compound 0.316 µM, first compound 0.3 µM",45.3%
same,"viability, T/C","second compound 1 µM, first compound 0.000949 µM",54.1%
same,"viability, T/C","second compound 1 µM, first compound 0.003 µM",44.1%
same,"viability, T/C","second compound 1 µM, first compound 0.00949 µM",40.3%
same,"viability, T/C","second compound 1 µM, first compound 0.03 µM",42.7%
same,"viability, T/C","second compound 1 µM, first compound 0.0949 µM",34.5%
same,"viability, T/C","second compound 1 µM, first compound 0.3 µM",34.6%
same,"viability, T/C","second compound 3.16 µM, first compound 0.000949 µM",27%
same,"viability, T/C","second compound 3.16 µM, first compound 0.003 µM",37.7%
same,"viability, T/C","second compound 3.16 µM, first compound 0.00949 µM",28.4%
same,"viability, T/C","second compound 3.16 µM, first compound 0.03 µM",28.8%
same,"viability, T/C","second compound 3.16 µM, first compound 0.0949 µM",29.1%
same,"viability, T/C","second compound 3.16 µM, first compound 0.3 µM",26.9%
same,"viability, T/C","second compound 10 µM, first compound 0.000949 µM",24.2%
same,"viability, T/C","second compound 10 µM, first compound 0.003 µM",25.1%
same,"viability, T/C","second compound 10 µM, first compound 0.00949 µM",24.1%
same,"viability, T/C","second compound 10 µM, first compound 0.03 µM",27.8%
same,"viability, T/C","second compound 10 µM, first compound 0.0949 µM",27.9%
same,"viability, T/C","second compound 10 µM, first compound 0.3 µM",31.2%
